Results from patent US20080249130A1, “Gut microsomal triglyceride transport protein inhibitors” (Sirtris Pharmaceuticals, Inc., priority 2007, published 2008).
Where two headings read alike, the source gives them in different places.

Test system: secretion of ApoB by HepG2 cells
Assay: ApoB secretion inhibition assay in HepG2 cells (ApoB ELISA)
Format: cell-based, human
Conditions: read-out: IC50 ApoB Assay
Experimental: The ability of the compounds of the present invention to inhibit the secretion of ApoB can be determined using the following cell-based assay, which measures the secretion of ApoB by HepG2 cells. ApoB has two possible metabolic fates: entrance into the lipoprotein assembly pathway within the lumen of the endoplasmic reticulum (ER), or degradation in the cytoplasm by the ubiquitin-dependent proteasome. The destiny of ApoB is determined by the relative availability of individual lipids, which is controlled by MTP (Davis, Biochim. Biophys. Acta, 1999, 1440, 1-31).
HepG2 cells (ATCC, HB-8065) are seeded in 96-well plates in DMEM with 10% FBS+pen/strep at a density of 1×10^5 cells/well (100 μl /well). Twenty-four hours after seeding, the plate is aspirated and the media changed to DMEM with 1% BSA and pen/strep, and the cells are serum-starved for 24 hours. After 24 hour serum-starvation, the plate is aspirated again and the cells are then treated for 24 hours with or without compound in DMEM with 1% BSA, 0.3 mM OA (OA complexed to BSA at a 2:1 ratio) and pen/strep. The final concentration of DMSO in the assay (from compound and control) is 0.1%. After 24 hour treatment, conditioned media is collected in an empty 96-well plate.
Cellular viability is measured using the cell permeable dye, AlamarBlue™. This dye undergoes electron reduction in viable cells but not dead cells. The reduced dye product gives a fluorescent signal which can be monitored with a fluorescence plate reader (excitation 545 nm and emission 575 nm). The amount of fluorescence generated in a given well is proportional to the number of viable cells. After collection, the 96-well plate is re-fed with 100 μl media (DMEM with 10% FBS) and 10 μl Alamar Blue™ per well, incubated for 2 hours and then read in a fluorescence plate reader.
ApoB secretion from HepG2 cells is quantitated by testing the conditioned media at […] using an ApoB ELISA kit (ALerCHEK) according to the manufacturer's instructions. The ELISA assay for ApoB is performed as follows: a polyclonal antibody against human ApoB (Chemicon) is diluted 1:1000 in carbonate-bicarbonate buffer and 100 μl are added to each well of a 96-well plate (NUNC). After 5 hours incubation at room temperature, the antibody solution is removed and wells are washed four times with PBS/0.05% TweenD 20 (Cayman Chemical Co.). Non-specific sites on the plastic plate are blocked by incubating wells for 1 to 1.5 hours in a solution of 0.5% BSA and 0.1% TweenD 20 made in PBS. One hundred microliters of a 1:20 dilution of growth medium from the HepG2 cells (made in 0.004% TweenD 20/1% BSA in PBS) is added to each well and incubated for 3 hours at room temperature. Wells are aspirated and washed four times (0.05% TweenD 20 in PBS) prior to adding 100 μl of a 1:1000 dilution (5 μg/ml) of the secondary antibody, mouse anti-human ApoB (Chemicon). After 2 hours incubation at room temperature, this solution is aspirated and the wells are again washed 4 times as above. One hundred microliters of peroxidase-conjugated affinity purified goat anti-mouse IgG (H+L) (Jackson ImmunoResearch Laboratories) (1:10,000 dilution in PBS/1% BSA/0.1% TweenD 20) is then added to each well and incubated for 1 hour at room temperature. After aspirating, the wells are washed 4 times as above and 50 μl of 1-step Ultra TMB ELISA reagent (Pierce) is added to each well and incubated for 5 minutes. The reaction is stopped by the addition of 50 μl of 2 NH2SO4 and absorbance of each well is read at 450 nm.

[1] = Homo sapiens, HepG2, Table 6, assay of Example 2

CC(C)(C)c1ccc(-c2ccccc2C(=O)Nc2ccc3nc(C(=O)N[C@H](C(=O)NCc4ccccc4)c4ccccc4)sc3c2)cc1 [Compound 6]
IC50 [1]: 4 nM

CCCCCNC(=O)[C@@H](NC(=O)c1cccc(-c2csc(NC(=O)c3ccccc3-c3ccc(C(C)(C)C)cc3)n2)c1)c1ccccc1 [Compound 11]
IC50 [1]: 296 nM

CN(Cc1ccc(F)cc1)C(=O)[C@@H](NC(=O)c1cccc(-c2csc(NC(=O)c3ccccc3-c3ccc(C(C)(C)C)cc3)n2)c1)c1ccccc1 [Compound 13]
IC50 [1]: 238 nM

CCCCCNC(=O)[C@@H](NC(=O)c1ccccc1-c1csc(NC(=O)c2ccccc2-c2ccc(C(C)(C)C)cc2)n1)c1ccccc1 [Compound 15]
IC50 [1]: > 10000 nM

CC(C)(C)c1ccc(-c2ccccc2C(=O)Nc2nc(-c3ccccc3C(=O)N[C@H](C(=O)N3CCCC3)c3ccccc3)cs2)cc1 [Compound 16, (S)-4′-tert-butyl-N-(4-(2-(2-oxo-1-phenyl-2-(pyrrolidin-1-yl)ethylcarbamoyl)phenyl)thiazol-2-yl)biphenyl-2-carboxamide]
IC50 [1]: 1100 nM

CN(Cc1ccc(F)cc1)C(=O)[C@@H](NC(=O)c1ccccc1-c1csc(NC(=O)c2ccccc2-c2ccc(C(C)(C)C)cc2)n1)c1ccccc1 [Compound 17]
IC50 [1]: > 10000 nM

CC(C)(C)c1ccc(-c2ccccc2C(=O)Nc2ccc3nc(C(=O)O)sc3c2)cc1 [Compound 18]
IC50 [1]: 2700 nM

CN(Cc1ccc(F)cc1)C(=O)[C@@H](NC(=O)c1nc2ccc(N)cc2s1)c1ccccc1 [Compound 19]
IC50 [1]: > 10000 nM

CC(C)(C)c1ccc(-c2ccccc2C(=O)NCC23CCC(C(=O)N[C@H](C(=O)N4CCCC4)c4ccccc4)(CC2)CC3)cc1 [Compound 20]
IC50 [1]: 95 nM

CC(C)(C)c1ccc(-c2ccccc2C(=O)NCC23CCC(C(=O)N[C@H](C(=O)N4CCC(F)(F)C4)c4ccccc4)(CC2)CC3)cc1 [Compound 21]
IC50 [1]: 190 nM

CC(C)(C)c1ccc(-c2ccccc2C(=O)NCC23CCC(C(=O)N[C@H](C(=O)N4Cc5ccccc5C4)c4ccccc4)(CC2)CC3)cc1 [Compound 22]
IC50 [1]: 253 nM

CC(C)(C)c1ccc(-c2ccccc2C(=O)Nc2ccc3nc(C(=O)N[C@H](C(=O)N4Cc5ccccc5C4)c4ccccc4)sc3c2)cc1 [Compound 23]
IC50 [1]: 21.6 nM

Cc1noc(-c2ccccc2C(=O)Nc2ccc3nc(C(=O)N[C@H](C(=O)N(C)Cc4ccc(F)cc4)c4ccccc4)sc3c2)n1 [Compound 25]
IC50 [1]: 59.4 nM

CC(C)(C)c1ccc(-c2ccccc2C(=O)Nc2nc(-c3cccc(C(=O)N[C@H](C(=O)N4CCC(F)(F)C4)c4ccccc4)c3)cs2)cc1 [Compound 26]
IC50 [1]: 77.2 nM

CC(C)(C)c1ccc(-c2ccccc2C(=O)Nc2nc(-c3cccc(C(=O)N[C@H](C(=O)N4Cc5ccccc5C4)c4ccccc4)c3)cs2)cc1 [Compound 27]
IC50 [1]: 318 nM

CN(Cc1ccc(F)cc1)C(=O)[C@@H](NC(=O)c1nc2ccc(NC(=O)c3ccccc3-c3cccnc3)cc2s1)c1ccccc1 [Compound 28]
IC50 [1]: 158 nM

CN(Cc1ccc(F)cc1)C(=O)[C@@H](NC(=O)c1nc2ccc(NC(=O)c3ccccc3-n3cnnn3)cc2s1)c1ccccc1 [Compound 29]
IC50 [1]: 4200 nM

CN(Cc1ccc(F)cc1)C(=O)[C@@H](NC(=O)c1nc2ccc(NC(=O)c3ccccc3-n3cccn3)cc2s1)c1ccccc1 [Compound 31]
IC50 [1]: 93.1 nM

CC(C)(C)c1ccc(-c2ccccc2C(=O)Nc2ccc3nc(C(=O)N[C@@H](C(=O)N4CCCC4)c4ccccc4)sc3c2)cc1 [Compound 34]
IC50 [1]: 34.8 nM

CN(Cc1ccc(F)cc1)C(=O)[C@H](NC(=O)c1nc2ccc(NC(=O)c3ccccc3-c3ccc(C(C)(C)C)cc3)cc2s1)c1ccccc1 [Compound 35]
IC50 [1]: 9.8 nM

CN(Cc1ccc(F)cc1)C(=O)[C@@H](NC(=O)c1ccc(-c2csc(NC(=O)c3ccccc3-c3ccc(C(C)(C)C)cc3)n2)cc1)c1ccccc1 [Compound 37]
IC50 [1]: 35.3 nM

CN(Cc1ccc(F)cc1)C(=O)[C@@H](NC(=O)c1nc2ccc(NC(=O)c3ccccc3-c3nc4ccccc4[nH]3)cc2s1)c1ccccc1 [Compound 39]
IC50 [1]: 256 nM

O=C(N[C@H](C(=O)N1CCCC1)c1ccccc1)c1nc2ccc(NC(=O)c3ccccc3-c3cn4ccsc4n3)cc2s1 [Compound 43]
IC50 [1]: 105 nM

O=C(N[C@H](C(=O)N1CCCCC1)c1ccccc1)c1nc2ccc(NC(=O)c3ccccc3-c3cn4ccsc4n3)cc2s1 [Compound 44]
IC50 [1]: 1610 nM

CC(C)(C)c1ccc(-c2ccccc2C(=O)NCC23CCC(C(=O)N[C@H](C(=O)N4CCCCC4)c4ccccc4)(CC2)CC3)cc1 [Compound 45]
IC50 [1]: 98.2 nM

CC(C)(C)c1ccc(-c2ccccc2C(=O)NCC23CCC(C(=O)N[C@H](C(=O)NC4CCCC4)c4ccccc4)(CC2)CC3)cc1 [Compound 46]
IC50 [1]: 151 nM

CN(C(=O)[C@@H](NC(=O)C12CCC(CNC(=O)c3ccccc3-c3ccc(C(C)(C)C)cc3)(CC1)CC2)c1ccccc1)C1CCCC1 [Compound 47]
IC50 [1]: 78.8 nM

CC(C)(C)c1ccc(-c2ccccc2C(=O)NCC23CCC(C(=O)N[C@H](C(=O)NC4CCCCC4)c4ccccc4)(CC2)CC3)cc1 [Compound 48]
IC50 [1]: 230 nM

CC(C)(C)c1ccc(-c2ccccc2C(=O)NCC23CCC(C(=O)N[C@H](C(=O)NCC4CC4)c4ccccc4)(CC2)CC3)cc1 [Compound 49]
IC50 [1]: 60.3 nM

CC(C)(C)NC(=O)[C@@H](NC(=O)C12CCC(CNC(=O)c3ccccc3-c3ccc(C(C)(C)C)cc3)(CC1)CC2)c1ccccc1 [Compound 50]
IC50 [1]: 165 nM

CN(C(=O)[C@@H](NC(=O)c1nc2ccc(NC(=O)c3ccccc3-c3cn4ccsc4n3)cc2s1)c1ccccc1)C1CCCC1 [Compound 51]
IC50 [1]: 872 nM

CC(C)(C)NC(=O)[C@@H](NC(=O)c1nc2ccc(NC(=O)c3ccccc3-c3cn4ccsc4n3)cc2s1)c1ccccc1 [Compound 52]
IC50 [1]: 248 nM

CN(C(=O)[C@@H](NC(=O)c1nc2ccc(NC(=O)c3ccccc3-c3cn4ccsc4n3)cc2s1)c1ccccc1)C(C)(C)C [Compound 53]
IC50 [1]: 4180 nM

CN(Cc1ccc(F)cc1)C(=O)[C@@H](NC(=O)c1nc(-c2ccc(NC(=O)c3ccccc3-c3ccc(C(C)(C)C)cc3)cc2)cs1)c1ccccc1 [Compound 56, (S)-4-(4-(4′-tert-butylbiphenyl-2-ylcarboxamido)phenyl)-N-(2-((4-fluorobenzyl)(methyl)amino)-2-oxo-1-phenylethyl)thiazole-2-carboxamide]
IC50 [1]: 846 nM

CC(C)(C)c1ccc(-c2ccccc2C(=O)Nc2ccc(-c3csc(C(=O)N[C@H](C(=O)N4CCCC4)c4ccccc4)n3)cc2)cc1 [Compound 57, (S)-4-(4-(4′-tert-butylbiphenyl-2-ylcarboxamido)phenyl)-N-(2-oxo-1-phenyl-2-(pyrrolidin-1-yl)ethyl)thiazole-2-carboxamide]
IC50 [1]: 272 nM

CN(C(=O)[C@@H](NC(=O)C12CCC(CNC(=O)c3ccccc3-c3ccc(C(C)(C)C)cc3)(CC1)CC2)c1ccccc1)C1CCCCC1 [Compound 58]
IC50 [1]: 300 nM

CN(C(=O)[C@@H](NC(=O)c1nc2ccc(NC(=O)c3ccccc3-c3cn4ccsc4n3)cc2s1)c1ccccc1)C1CCCCC1 [Compound 61]
IC50 [1]: 2100 nM

O=C(N[C@H](C(=O)NCC1CC1)c1ccccc1)c1nc2ccc(NC(=O)c3ccccc3-c3cn4ccsc4n3)cc2s1 [Compound 62]
IC50 [1]: 286 nM

O=C(N[C@H](C(=O)NC1CCCCC1)c1ccccc1)c1nc2ccc(NC(=O)c3ccccc3-c3cn4ccsc4n3)cc2s1 [Compound 63]
IC50 [1]: 82 nM

Cc1cccc(C(=O)NCC23CCC(C(=O)N[C@H](C(=O)N4CCCC4)c4ccccc4)(CC2)CC3)c1-c1ccc(C(C)(C)C)cc1 [Compound 65]
IC50 [1]: 5.2 nM
IC50 (Table 6, assay of Example 2): 4.5 nM

Cc1cccc(C(=O)NCC23CCC(C(=O)N[C@H](C(=O)NCC4CC4)c4ccccc4)(CC2)CC3)c1-c1ccc(C(C)(C)C)cc1 [Compound 69]
IC50 [1]: 8.9 nM
